Source: patent US10421779B2, “Carbazole compound having anti-virus activity” (priority 2016, dated 2019)

What follows are compounds tested on HCV genotype 1 b (HCV replicon system) (assay: HCV replicon system genotype 1b, Renilla luciferase activity). Conditions: Hepatitis C virus, 72 h; HCV genotype 1b replicon, Rluc, 3 days; range limits given with own units (pM to nM); read-out: Replicon EC50 1b type.
Assay type: cell-based
Procedure: From human liver cells (Huh7.5.1 cell) infected by hepatitis C virus, the anti-virus effects by the compound of the present invention were measured. From HCV genotype 1 b (HCV replicon system), genotype 2a (HCV cell culture system, HCVcc), and genotype 3a, the EC50 values were measured.
In order to measure the EC50 value from HCV genotype 1 b, the degrees of HCV replication inhibitory activities of an experimental compound were measured. The EC50 value was measured by treating the experimental compound with the HCV replicon systems (genotype 1 b) having Renilla luciferase (Rluc) genes and genotype 1 b non-structure genes under various concentration conditions to compare the activity degree of the luciferase after 3 days elapsed time with that of the control.

Compound	EC50
COCCOCCn1c2cc(NC(=O)[C@@H]3CCCN3C(=O)[C@H](NC(=O)OC)c3ccccc3)ccc2c2ccc(NC(=O)[C@@H]3CCCN3C(=O)[C@H](NC(=O)OC)c3ccccc3)cc21 [Example 22, dimethyl ((1R,1′R)-((2S,2′S)-(((9-(2-(2-methoxyethoxy)ethyl)-9H-carbazole-2,7-diyl)bis(azanediyl))bis(carbonyl))bis(pyrrolidine-2,1-diyl))bis(2-oxo-1-phenylethane-2,1-diyl))dicarbamate]	250 to 1250 pM

Same assay, conditions: Hepatitis C virus, 72 h; HCV genotype 1b replicon, Rluc, 3 days; read-out: Replicon EC50 1b type

Compound	EC50
COC(=O)N[C@@H](C(=O)N1CCC[C@H]1C(=O)Nc1ccc2c3ccc(NC(=O)[C@@H]4CCCN4C(=O)[C@H](NC(=O)OC)c4ccccc4)cc3n(Cc3cccnc3)c2c1)c1ccccc1 [Example 18, dimethyl ((1R,1′R)-((2S,2′S)-(((9-(pyridine-3-ylmethyl)-9H-carbazole-2,7-diyl)bis(azanediyl))bis(carbonyl))bis(pyrrolidine-2,1-diyl))bis(2-oxo-1-phenylethane-2,1-diyl))dicarbamate]	50 to 250 pM
COCCOCCOCCn1c2cc(NC(=O)[C@@H]3CCCN3C(=O)[C@H](NC(=O)OC)c3ccccc3)ccc2c2ccc(NC(=O)[C@@H]3CCCN3C(=O)[C@H](NC(=O)OC)c3ccccc3)cc21 [Example 23, dimethyl ((1R,1′R)-((2S,2′S)-(((9-(2-(2-(2-methoxyethoxy)ethoxy)ethyl)-9H-carbazole-2,7-diyl)bis(azanediyl))bis(carbonyl))bis(pyrrolidine-2,1-diyl))bis(2-oxo-1-phenylethane-2,1-diyl))dicarbamate]	> 1000 pM
COC(=O)N[C@@H](C(=O)N1CCC[C@H]1C(=O)Nc1ccc2c3ccc(NC(=O)[C@@H]4CCCN4C(=O)[C@H](NC(=O)OC)c4ccccc4)cc3n(CC3CCCC3)c2c1)c1ccccc1 [Example 47, dimethyl ((1R,1′R)-((2S,2′S)-(((9-(cyclopentylmethyl)-9H-carbazole-2,7-diyl)bis(azanediyl))bis(carbonyl))bis(pyrrolidine-2,1-diyl))bis(2-oxo-1-phenylethane-2,1-diyl))dicarbamate]	~10 pM
CCCCn1c2cc(NC(=O)[C@@H]3CCCN3C(=O)[C@@H](NC(=O)OC)C(C)C)ccc2c2ccc(NC(=O)[C@@H]3CCCN3C(=O)[C@@H](NC(=O)OC)C(C)C)cc21 [Example 4, dimethyl ((2S,2′S)-((2S,2′S)-(((9-butyl-9H-carbazole-2,7-diyl)bis(azanediyl))bis(carbonyl))bis(pyrrolidine-2,1-diyl))bis(3-methyl-1-oxobutane-1,2-diyl))dicarbamate]	10000 to 100000 pM
COC(=O)N[C@@H](C(=O)N1CCC[C@H]1C(=O)Nc1ccc2c3ccc(NC(=O)[C@@H]4CCCN4C(=O)[C@H](NC(=O)OC)c4ccccc4)cc3n(C)c2c1)c1ccccc1 [Example 6, dimethyl ((1R,1′R)-((2S,2′S)-(((9-methyl-9H-carbazole-2,7-diyl)bis(azanediyl))bis(carbonyl))bis(pyrrolidine-2,1-diyl))bis(2-oxo-1-phenylethane-2,1-diyl))dicarbamate]	19.5 pM
CCCCC(CCCC)n1c2cc(NC(=O)[C@@H]3CCCN3C(=O)[C@H](NC(=O)OC)c3ccccc3)ccc2c2ccc(NC(=O)[C@@H]3CCCN3C(=O)[C@H](NC(=O)OC)c3ccccc3)cc21 [Example 46, dimethyl ((1R,1′R)-((2S,2′S)-(((9-(nonane-5-yl)-9H-carbazole-2,7-diyl)bis(azanediyl))bis(carbonyl))bis(pyrrolidine-2,1-diyl))bis(2-oxo-1-phenylethane-2,1-diyl))dicarbamate]	~10 pM
COC(=O)N[C@@H](C(=O)N1CCC[C@H]1C(=O)Nc1ccc2c3ccc(NC(=O)[C@@H]4CCCN4C(=O)[C@H](NC(=O)OC)c4ccccc4)cc3n(Cc3ccccn3)c2c1)c1ccccc1 [Example 17, dimethyl ((1R,1′R)-((2S,2′S)-(((9-(pyridine-2-ylmethyl)-9H-carbazole-2,7-diyl)bis(azanediyl))bis(carbonyl))bis(pyrrolidine-2,1-diyl))bis(2-oxo-1-phenylethane-2,1-diyl))dicarbamate]	50 to 250 pM
CC(C)[C@@H](C(=O)N1CCC[C@H]1C(=O)Nc1ccc2c3ccc(NC(=O)[C@@H]4CCCN4C(=O)[C@H](C(C)C)N4CCOC4=O)cc3n(C)c2c1)N1CCOC1=O [Example 10, (2S,2′S)—N,N′-(9-methyl-9H-carbazole-2,7-diyl)bis(1-((S)-3-methyl-2-(2-oxazolidine-3-yl)butanoyl)pyrrolidine-2-carboxamide)]	> 100000 pM
CCCCn1c2cc(NC(=O)C3CCCN3C(=O)[C@H](C(C)C)N3CCOC3=O)ccc2c2ccc(NC(=O)[C@@H]3CCCN3C(=O)[C@H](C(C)C)N3CCOC3=O)cc21 (stereo partly drawn) [Example 5, (2S,2′S)—N,N′-(9-butyl-9H-carbazole-2,7-diyl)bis(1-((S)-3-methyl-3-2-(2-oxooxazolidine-3-yl)butanoyl)pyrrolidine-2-carboxamide)]	> 100000 pM
COC(=O)N[C@@H](C(=O)N1CCC[C@H]1C(=O)Nc1ccc2c3ccc(NC(=O)[C@@H]4CCCN4C(=O)[C@H](NC(=O)OC)c4ccccc4)cc3n(CCN3CCN(C)CC3)c2c1)c1ccccc1 [Example 11]	10000 to 100000 pM
COC(=O)N[C@@H](C(=O)N1CCC[C@H]1C(=O)Nc1ccc2c3ccc(NC(=O)[C@@H]4CCCN4C(=O)[C@H](NC(=O)OC)C(C)C)cc3n(C)c2c1)C(C)C [Example 7, dimethyl ((2R,2′R)-((2S,2′S)-(((9-methyl-9H-carbazole-2,7-diyl)bis(azanediyl))bis(carbonyl))bis(pyrrolidine-2,1-diyl))bis(3-methyl-1-oxobutane-1,2-diyl))dicarbamate]	> 1000 pM
CCCCCCOc1ccccc1Cn1c2cc(NC(=O)[C@@H]3CCCN3C(=O)[C@H](NC(=O)OC)c3ccccc3)ccc2c2ccc(NC(=O)[C@@H]3CCCN3C(=O)[C@H](NC(=O)OC)c3ccccc3)cc21 [Example 35, dimethyl ((1R,1′R)-((2S,2′S)-(((9-(2-(hexyloxy)benzyl)-9H-carbazole-2,7-diyl)bis(azanediyl))bis(carbonyl))bis(pyrrolidine-2,1-diyl))bis(2-oxo-1-phenylethane-2,1-diyl))dicarbamate]	~1000 pM
COCCOCCOc1cccc(Cn2c3cc(NC(=O)[C@@H]4CCCN4C(=O)[C@H](NC(=O)OC)c4ccccc4)ccc3c3ccc(NC(=O)[C@@H]4CCCN4C(=O)[C@H](NC(=O)OC)c4ccccc4)cc32)c1 [Example 40, dimethyl ((1R,1′R)-((2S,2′S)-(((9-(3-(2-(2-methoxyethoxy)ethoxy)benzyl)-9H-carbazole-2,7-diyl)bis(azanediyl))bis(carbonyl))bis(pyrrolidine-2,1-diyl))bis(2-oxo-1-phenylethane-2,1-diyl))dicarbamate]	10 to 100 pM
CCCCn1c2cc(NC(=O)C3CCCN3C(=O)[C@@H](NC(=O)OC)c3ccccc3)ccc2c2ccc(NC(=O)[C@@H]3CCCN3C(=O)[C@@H](NC(=O)OC)c3ccccc3)cc21 (stereo partly drawn) [Example 3, dimethyl ((1S,1′S)-((2S,2′S)-(((9-butyl-9H-carbazole-2,7-diyl)bis(azanediyl))bis(carbonyl))bis(pyrrolidine-2,1-diyl))bis(2-oxo-1-phenylethane-2,1-diyl))carbamate]	> 1000 pM
COC(=O)N[C@H](C(=O)N1CCC[C@H]1C(=O)Nc1ccc2c3ccc(NC(=O)[C@@H]4CCCN4C(=O)[C@@H](NC(=O)OC)c4ccccc4)cc3n(C)c2c1)c1ccccc1 [Example 8, dimethyl ((1S,1′S)-((2S,2′S)-(((9-methyl-9H-carbazole-2,7-diyl)bis(azanediyl))bis(carbonyl))bis(pyrrolidine-2,1-diyl))bis(2-oxo-1-phenylethane-2,1-diyl))dicarbamate]	> 1000 pM
CCCCn1c2cc(NC(=O)[C@@H]3CCCN3C(=O)[C@H](NC(=O)OC)C(C)C)ccc2c2ccc(NC(=O)[C@@H]3CCCN3C(=O)[C@H](NC(=O)OC)C(C)C)cc21 [Example 2, dimethyl ((2R,2′R)-((2S,2′S)-(((9-butyl-9H-carbazole-2,7-diyl)bis(azanediyl))bis(carbonyl))bis(pyrrolidine-2,1-diyl))bis(3-methyl-1-oxobutane-1,2-diyl))dicarbamate]	> 1000 pM
CCCCn1c2cc(NC(=O)[C@@H]3CCCN3C(=O)[C@H](NC(=O)OC)c3ccccc3)ccc2c2ccc(NC(=O)[C@@H]3CCCN3C(=O)[C@H](NC(=O)OC)c3ccccc3)cc21 [Example 1, dimethyl ((1R,1′R)-((2S,2′S)-(((9-butyl-9H-carbazole-2,7-diyl)bis(azanediyl))bis(carbonyl))bis(pyrrolidine-2,1-diyl))bis(2-oxo-1-phenylethane-2,1-diyl))dicarbamate]	10.4 pM
CCCCCCCCCCn1c2cc(NC(=O)[C@@H]3CCCN3C(=O)[C@H](NC(=O)OC)C(C)C)ccc2c2ccc(NC(=O)[C@@H]3CCCN3C(=O)[C@H](NC(=O)OC)C(C)C)cc21 [Example 25, dimethyl ((2R,2′R)-((2S,2′S)-(((9-decyl-9H-carbazole-2,7-diyl)bis(azanediyl))bis(carbonyl))bis(pyrrolidine-2,1-diyl))bis(3-methyl-1-oxobutane-1,2-diyl))dicarbamate]	> 1000 pM
COC(=O)N[C@@H](C(=O)N1CCC[C@H]1C(=O)Nc1ccc2c3ccc(NC(=O)[C@@H]4CCCN4C(=O)[C@H](NC(=O)OC)c4ccccc4)cc3n(CCN3CCOCC3)c2c1)c1ccccc1 [Example 12, dimethyl ((1R,1′R)-((2S,2′S)-(((9-(2-morpholinoethyl)-9H-carbazole-2,7-diyl)bis(azanediyl))bis(carbonyl))bis(pyrrolidine-2,1-diyl))bis(2-oxo-1-phenylethane-2,1-diyl))carbamate]	1000 to 10000 pM
